Assay results taken from ChEMBL document CHEMBL1201862, “PubChem BioAssay data set” (2004).
Each block holds one compound with its values, some of them ahead of it. Calls of active or inactive are those of the source.

How the values were obtained:
Fatty acid synthase [1] = molecular target: T1, Fatty acid synthase (Homo sapiens, UniProt P49327); experiment: FAS thioesterase domain inhibitors, dose response, biochemical, endpoint fluorescence intensity, uHTS hits (AID 624327); type: functional;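 also: fluorescence from hydrolysis of an O-methyl fluorescein acyl ester substrate by the enzyme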
T1 sequence (P49327 whole entry, the tested form may be a part): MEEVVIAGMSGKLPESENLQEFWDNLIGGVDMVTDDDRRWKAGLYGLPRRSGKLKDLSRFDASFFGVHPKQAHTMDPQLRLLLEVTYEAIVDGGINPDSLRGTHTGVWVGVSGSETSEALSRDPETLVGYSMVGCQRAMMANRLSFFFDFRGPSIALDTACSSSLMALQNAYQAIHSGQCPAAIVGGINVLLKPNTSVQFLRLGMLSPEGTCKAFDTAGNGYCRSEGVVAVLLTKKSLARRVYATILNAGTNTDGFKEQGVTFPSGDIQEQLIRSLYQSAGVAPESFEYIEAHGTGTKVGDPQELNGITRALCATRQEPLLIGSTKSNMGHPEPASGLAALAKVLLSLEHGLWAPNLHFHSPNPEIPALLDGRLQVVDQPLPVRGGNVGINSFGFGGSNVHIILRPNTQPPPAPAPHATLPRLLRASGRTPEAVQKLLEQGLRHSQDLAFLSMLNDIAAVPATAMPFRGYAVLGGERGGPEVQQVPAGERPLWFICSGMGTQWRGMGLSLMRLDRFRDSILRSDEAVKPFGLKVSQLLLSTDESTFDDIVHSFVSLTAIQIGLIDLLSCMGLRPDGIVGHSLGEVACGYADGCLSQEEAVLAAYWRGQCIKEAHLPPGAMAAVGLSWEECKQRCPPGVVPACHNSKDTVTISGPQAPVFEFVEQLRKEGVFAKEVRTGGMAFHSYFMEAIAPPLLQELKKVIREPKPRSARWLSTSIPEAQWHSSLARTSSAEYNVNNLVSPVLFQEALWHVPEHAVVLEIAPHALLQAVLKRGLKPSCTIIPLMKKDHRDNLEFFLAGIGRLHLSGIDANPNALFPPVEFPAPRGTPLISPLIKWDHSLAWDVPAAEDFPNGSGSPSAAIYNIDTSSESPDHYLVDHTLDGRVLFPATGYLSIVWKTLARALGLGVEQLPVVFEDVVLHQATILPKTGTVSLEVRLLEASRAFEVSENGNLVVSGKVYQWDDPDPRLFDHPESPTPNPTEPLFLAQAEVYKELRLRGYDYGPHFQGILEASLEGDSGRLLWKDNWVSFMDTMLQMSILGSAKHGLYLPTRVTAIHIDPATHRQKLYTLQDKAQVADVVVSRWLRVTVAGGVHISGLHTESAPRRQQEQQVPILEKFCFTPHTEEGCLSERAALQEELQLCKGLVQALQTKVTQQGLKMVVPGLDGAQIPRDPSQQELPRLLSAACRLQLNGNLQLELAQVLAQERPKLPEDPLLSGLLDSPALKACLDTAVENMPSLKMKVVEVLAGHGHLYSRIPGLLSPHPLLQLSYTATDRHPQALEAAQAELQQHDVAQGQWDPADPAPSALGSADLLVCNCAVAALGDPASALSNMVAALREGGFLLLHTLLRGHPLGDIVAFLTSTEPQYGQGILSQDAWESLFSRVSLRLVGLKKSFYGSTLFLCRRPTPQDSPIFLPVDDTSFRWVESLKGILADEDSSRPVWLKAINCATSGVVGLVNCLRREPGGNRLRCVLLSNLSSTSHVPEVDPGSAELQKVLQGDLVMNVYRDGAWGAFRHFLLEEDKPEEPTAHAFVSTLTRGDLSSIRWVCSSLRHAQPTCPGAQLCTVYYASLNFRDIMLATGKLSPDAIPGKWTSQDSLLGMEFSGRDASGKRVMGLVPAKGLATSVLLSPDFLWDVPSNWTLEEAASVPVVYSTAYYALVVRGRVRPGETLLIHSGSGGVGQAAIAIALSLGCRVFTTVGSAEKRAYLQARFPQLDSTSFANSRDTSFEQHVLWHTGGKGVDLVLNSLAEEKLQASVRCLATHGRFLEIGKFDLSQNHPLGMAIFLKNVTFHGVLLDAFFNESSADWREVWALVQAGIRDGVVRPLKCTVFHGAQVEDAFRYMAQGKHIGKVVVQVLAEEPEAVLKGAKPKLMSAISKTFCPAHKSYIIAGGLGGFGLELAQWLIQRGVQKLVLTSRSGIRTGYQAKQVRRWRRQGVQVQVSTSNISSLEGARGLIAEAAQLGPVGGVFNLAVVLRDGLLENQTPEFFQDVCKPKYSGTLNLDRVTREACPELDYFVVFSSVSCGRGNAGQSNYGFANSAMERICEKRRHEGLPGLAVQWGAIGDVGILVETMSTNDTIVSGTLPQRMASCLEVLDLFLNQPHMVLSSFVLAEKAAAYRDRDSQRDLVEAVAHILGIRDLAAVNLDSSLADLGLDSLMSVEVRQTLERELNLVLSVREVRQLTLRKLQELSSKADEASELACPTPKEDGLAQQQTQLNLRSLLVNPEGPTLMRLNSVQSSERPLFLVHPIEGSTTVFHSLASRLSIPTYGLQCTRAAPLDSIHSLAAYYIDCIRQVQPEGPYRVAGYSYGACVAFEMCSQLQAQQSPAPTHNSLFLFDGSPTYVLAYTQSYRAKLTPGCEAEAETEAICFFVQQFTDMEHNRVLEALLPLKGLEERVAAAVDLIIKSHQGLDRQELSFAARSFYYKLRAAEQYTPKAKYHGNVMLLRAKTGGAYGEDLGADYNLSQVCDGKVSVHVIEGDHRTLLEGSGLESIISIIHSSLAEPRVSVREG

Fatty acid synthase [2] = molecular target: T1, Fatty acid synthase; experiment: FAS thioesterase domain inhibitors, dose response, biochemical, kinetic fluorescence intensity (AID 624326); type: functional;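 also: rate of fluorescence rise from hydrolysis of a fluorogenic O-methyl fluorescein ester substrate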
[3] = Shn3 3'UTR reporter inhibitors, dose response, cell-based, Clone20 osteoblasts, firefly luciferase, cherry-picked (AID 624132); type: functional;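 also: firefly luciferase luminescence from reporter carrying the Shn3 3'UTR in osteoblasts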
[4] = control 3'UTR Renilla luciferase suppression, dose response, counter-screen for Shn3 inhibitor project, cell-based, Clone20-Shn3RL, cherry-picked (AID 624133); type: functional
Genome polyprotein = Genome polyprotein (dengue virus type 2, UniProt P29990); experiment: Dengue-2 NS5 methyltransferase inhibitors, primary screen, biochemical, confirmation dose response (AID 588689); type: functional
Sequence of Genome polyprotein (P29990 2492-3391 limits assumed): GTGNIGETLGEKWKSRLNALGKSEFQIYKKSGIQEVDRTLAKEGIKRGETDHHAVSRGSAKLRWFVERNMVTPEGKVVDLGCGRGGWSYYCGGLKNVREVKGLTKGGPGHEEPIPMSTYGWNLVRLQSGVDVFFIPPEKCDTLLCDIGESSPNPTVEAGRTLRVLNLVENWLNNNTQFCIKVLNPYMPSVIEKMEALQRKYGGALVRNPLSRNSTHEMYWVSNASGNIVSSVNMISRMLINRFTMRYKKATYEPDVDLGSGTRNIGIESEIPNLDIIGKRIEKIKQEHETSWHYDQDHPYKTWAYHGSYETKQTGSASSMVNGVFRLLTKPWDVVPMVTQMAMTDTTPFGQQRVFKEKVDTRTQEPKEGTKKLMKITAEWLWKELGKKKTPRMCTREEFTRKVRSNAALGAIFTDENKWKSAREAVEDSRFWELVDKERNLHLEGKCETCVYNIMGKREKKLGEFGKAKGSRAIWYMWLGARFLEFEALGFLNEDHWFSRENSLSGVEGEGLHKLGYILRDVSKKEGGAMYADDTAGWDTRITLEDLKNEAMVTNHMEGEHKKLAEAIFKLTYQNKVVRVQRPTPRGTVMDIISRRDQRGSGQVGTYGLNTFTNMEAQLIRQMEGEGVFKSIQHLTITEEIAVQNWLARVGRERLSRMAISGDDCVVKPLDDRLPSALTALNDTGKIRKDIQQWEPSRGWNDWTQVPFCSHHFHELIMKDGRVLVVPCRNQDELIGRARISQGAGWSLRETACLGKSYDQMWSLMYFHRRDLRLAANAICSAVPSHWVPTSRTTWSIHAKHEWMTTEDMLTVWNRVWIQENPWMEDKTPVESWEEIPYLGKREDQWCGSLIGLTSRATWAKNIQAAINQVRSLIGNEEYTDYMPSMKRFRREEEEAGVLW

H9c2 = experiment: cells; type: functional, cell-based; conditions: Rattus norvegicus, H9c2, Myocardium;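 also: confirmatory concentration-response retest of ultra-high-throughput screening hits for modulation of myocardial damage; cell death induced by hydrogen peroxide oxidative stress; compound pretreatment for 60 min then peroxide exposure for 2 h; potency is for protecting the cells against peroxide damage rather than for killing them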
[5] = molecular target: T2, Corticotropin-releasing factor receptor 2/Corticotropin-releasing factor-binding protein (Homo sapiens, UniProt P24387+Q13324); experiment: Dose Response confirmation of uHTS hits for small molecule antagonists of the CRF-binding protein and CRF-R2 receptor complex.; type: functional; conditions: read-out: IC50_Mean
T2 sequence (Q13324 whole entry): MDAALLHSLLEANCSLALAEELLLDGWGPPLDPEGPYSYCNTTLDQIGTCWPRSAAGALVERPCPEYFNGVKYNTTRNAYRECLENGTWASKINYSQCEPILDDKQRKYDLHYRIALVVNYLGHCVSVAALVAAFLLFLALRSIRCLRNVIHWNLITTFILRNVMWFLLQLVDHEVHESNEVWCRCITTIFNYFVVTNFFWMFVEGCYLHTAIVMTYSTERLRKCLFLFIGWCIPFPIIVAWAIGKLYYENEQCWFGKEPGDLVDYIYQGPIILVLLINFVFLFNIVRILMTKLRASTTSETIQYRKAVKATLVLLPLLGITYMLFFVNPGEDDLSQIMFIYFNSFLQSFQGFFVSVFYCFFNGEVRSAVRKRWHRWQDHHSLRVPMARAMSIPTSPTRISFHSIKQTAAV
T2 sequence (P24387 whole entry): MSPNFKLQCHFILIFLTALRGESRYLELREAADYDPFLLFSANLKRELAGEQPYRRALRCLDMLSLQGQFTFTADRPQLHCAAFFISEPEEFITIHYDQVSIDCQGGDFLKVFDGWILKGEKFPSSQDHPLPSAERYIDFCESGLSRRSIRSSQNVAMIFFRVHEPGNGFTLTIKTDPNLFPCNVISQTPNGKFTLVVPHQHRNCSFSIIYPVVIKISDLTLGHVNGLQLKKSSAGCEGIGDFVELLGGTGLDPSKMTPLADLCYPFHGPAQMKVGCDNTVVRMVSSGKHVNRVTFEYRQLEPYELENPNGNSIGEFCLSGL

[6] = molecular target: T2, Corticotropin-releasing factor receptor 2/Corticotropin-releasing factor-binding protein; experiment: activators of CRF receptor 2 with binding protein – uHTS hits, confirmation (AID 602473); type: functional; conditions: read-out: EC50_Mean
[7] = growth suppression of PTEN-null colon cells, dose response, cell-based, HCT116 PTEN knockout (AID 1047); type: functional;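 also: HCT116 colon tumor cells with PTEN knocked out; cells exposed to compound for 60 hours before readout; potency for loss of cell viability measured by luminescence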
[8] = growth suppression of beta-catenin-knockout colon cells, dose response, cell-based, HCT116, human colon tumor (AID 1045); type: functional;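 also: HCT116 colon tumor cells with beta catenin knocked out; cells exposed to compound for 60 hours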
[9] = molecular target: T3, Rac GTPase-activating protein 1 (Homo sapiens, UniProt Q9H0H5); experiment: MgcRacGAP GTPase-activating activity inhibitors, confirmation, biochemical, ADP Hunter fluorescence, primary and confirmatory (AID 624330); type: functional
T3 sequence (Q9H0H5 whole entry): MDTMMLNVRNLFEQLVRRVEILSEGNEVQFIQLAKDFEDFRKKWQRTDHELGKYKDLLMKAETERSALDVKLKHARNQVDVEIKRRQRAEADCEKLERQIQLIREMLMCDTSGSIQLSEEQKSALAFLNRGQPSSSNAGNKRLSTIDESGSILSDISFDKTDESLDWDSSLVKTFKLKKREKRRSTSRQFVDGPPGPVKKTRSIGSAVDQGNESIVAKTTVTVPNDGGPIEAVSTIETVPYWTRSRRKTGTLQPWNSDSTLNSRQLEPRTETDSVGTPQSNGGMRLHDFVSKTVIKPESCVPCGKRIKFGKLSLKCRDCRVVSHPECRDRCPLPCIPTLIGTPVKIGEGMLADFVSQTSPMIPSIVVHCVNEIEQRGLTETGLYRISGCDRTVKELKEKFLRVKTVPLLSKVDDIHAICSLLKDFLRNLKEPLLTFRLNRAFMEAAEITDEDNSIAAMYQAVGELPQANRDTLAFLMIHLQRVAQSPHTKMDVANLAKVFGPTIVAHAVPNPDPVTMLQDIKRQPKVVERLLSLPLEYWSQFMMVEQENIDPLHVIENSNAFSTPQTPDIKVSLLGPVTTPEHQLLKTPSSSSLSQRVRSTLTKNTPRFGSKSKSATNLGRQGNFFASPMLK

[10] = inhibitors of HIV Env-driven cell fusion, dose response, cherry-pick (AID 652057); type: functional, cell-based
[11] = ZM109 Env clade C HIV-1 fusion inhibitors, dose response, HeLa effector, CEM target cells, luciferase, cherry-pick (AID 652058); type: functional, cell-based
[12] = off-target signal loss in HeLa-CEM21 co-culture – HeLa F-luc CTL cells, cherry-picked, counter-screen for HIV-1 Env fusion inhibitor project, dose response (AID 652040); type: functional, cell-based;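 also: potency for signal decrease marking cytotoxic or nonspecific inhibition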
[13] = inhibitors of clade B AD8 Env fusion, dose response, cell-based, cherry-pick (AID 652062); type: functional;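 also: luciferase signal from cell-cell fusion driven by HIV-1 clade B AD8 Env; potency is for inhibitors of fusion seen as a drop in luminescence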

IC50 (Fatty acid synthase [1]): 8.28 µM (active) | IC50 (Fatty acid synthase [2]): 5.35 µM (active)
Compound: CC(C)(C)c1ccc(OCCC(=O)OCC(=O)NC2CCCCC2)cc1

Compound: CCCc1nc([N+](=O)[O-])c(S(=O)(=O)c2ccccc2)n1CC(C)C
AC50 [3]: 7.39 µM (active) | AC50 [4]: 25.9 µM (active)

IC50 (Genome polyprotein): 31.8 µM (active)
Compound: CC1(C)CC(=O)C(=Cc2cn(CCC#N)nc2-c2ccc(Cl)cc2)C(=O)C1

Compound: COCCn1cnc2c(c1=O)c1nc3ccccc3nc1n2/N=C/c1cccc(OC)c1
IC50 (H9c2): 24.5 µM (active) | IC50 [5]: > 47.1 µM (inactive) | EC50 [6]: > 53 µM (inactive)

Compound: O=C1CCCCCN1Sc1ccccc1
EC50 [7]: 20.2 µM (active) | EC50 [8]: 16.9 µM (active) | IC50 [9]: 87.6 µM (active)

IC50 (Fatty acid synthase [1]): 44.9 µM (inactive) | IC50 (Fatty acid synthase [2]): 80 µM (inactive)
Compound: COc1ccc2[nH]c3c(c2c1)CCN1C(=O)C(CC(=O)NCCC2=CCCCC2)C[C@H](C(=O)N2CCOCC2)[C@@]31CCC1CCCC1 (stereo not given in full)

Compound: COc1ccc(-c2csc3ncnc(Oc4ccc5c(C)cc(=O)oc5c4)c23)cc1
EC50 [7]: 24.8 µM (active) | EC50 [8]: 47.3 µM (active)

Compound: CCOC(=O)[C@@H]1[C@H]2COc3ccc(Br)cc3[C@@H]2N2C(=O)N(c3cccc(F)c3)C(=O)[C@@]12C
AC50 [10]: 2.7 µM (active) | AC50 [11]: 4.41 µM (active) | AC50 [12]: 2.45 µM (active) | AC50 [13]: 4.21 µM (active)

Compound: COc1ccccc1N(C)S(=O)(=O)c1ccc(Cl)c(C(=O)NCC2(N(C)C)CCCCC2)c1
AC50 [10]: 2.92 µM (active) | AC50 [11]: 3.96 µM (active) | AC50 [12]: 5.54 µM (active) | AC50 [13]: 3.32 µM (active)

IC50 (Fatty acid synthase [1]): 33.4 µM (inactive) | IC50 (Fatty acid synthase [2]): 28.5 µM (inactive)
Compound: O=C(Oc1cccc(N2C(=O)C3C4c5ccccc5C(c5ccccc54)C3C2=O)c1)c1ccco1 (stereo not given)

Compound: CC[C@@]1(C(=O)OC)N[C@H](CN(C)C(=O)Nc2ccc(OC)cc2)[C@@H]2C(=O)N(Cc3ccccc3)C(=O)[C@@H]21
AC50 [10]: 1.1 µM (active) | AC50 [11]: 1.71 µM (active) | AC50 [12]: 1.46 µM (active) | AC50 [13]: 1.32 µM (active)

Compound: COc1ccc(Cl)cc1NC(=O)CN(C)C(=O)CCCc1c[nH]c2ccccc12
AC50 [10]: 3.29 µM (active) | AC50 [11]: 5.13 µM (active) | AC50 [12]: 4.68 µM (active) | AC50 [13]: 4.6 µM (active)

Compound: O=C(Cn1nnc(-c2ccccc2Cl)n1)N/N=C/c1ccc(-c2cccc(Cl)c2)o1
EC50 [7]: 20.1 µM (active) | EC50 [8]: 39.1 µM (active)
